Columns and labels:
[1] = tested on: Lactobacterium; assay: Stimulation of growth of lactobacilli in vitro (enumeration in human faecal homogenate culture); format: cell-based, Lactobacillus spp; details: human faecal homogenate in diluted WC broth, incubated up to 24 hours, control 2.8 × 10^5
Procedure: (§1) The stimulation of growth of microorganisms has been studied by enumerating bifidobacterium and lactobacilli in vitro in the presence of various test substances. More specifically, aliquots (1 mL) of human faecal homogenates (10 g per 100 mL diluent) were added to diluted WC broth (diluted 50:50 with 0.05M phosphate buffer) to which were added the test mixtures and a lactobacillus or bifidobacterium strain. For each of the combinations, parallel tubes were prepared with one set being inoculated with Bifidobacterium spp or Lactobacillus spp. All mixtures were then incubated for up to 24 hours and bacterial numbers enumerated.

[2] = tested on: Bifidobacterium; assay: Stimulation of growth of Bifidobacterium in vitro (enumeration in human faecal homogenate culture); format: cell-based, Bifidobacterium spp; details: human faecal homogenate in diluted WC broth, incubated up to 24 hours, control 1.0 × 10^6
Procedure: as §1

CLA-TG [C6]
Bacterial numbers (CFU/ml) ([1]; 1% fatty acid alone): 4.4 × × 10^5 CFU/ml | Bacterial numbers (CFU/ml) ([2]; 1% fatty acid alone): 2.1 × × 10^6 CFU/ml

Lactolin [C3]
Bacterial numbers (CFU/ml) ([1]; 1% prebiotic alone): 1.5 × × 10^6 CFU/ml | Bacterial numbers (CFU/ml) ([2]; 1% prebiotic alone): 1.6 × × 10^7 CFU/ml

CLA-SE [C7]
Bacterial numbers (CFU/ml) ([1]; 1% fatty acid alone): 4.4 × × 10^5 CFU/ml | Bacterial numbers (CFU/ml) ([2]; 1% fatty acid alone): 2.9 × × 10^6 CFU/ml

CLA [C5]
Bacterial numbers (CFU/ml) ([1]; 1% fatty acid alone): 4.2 × × 10^5 CFU/ml | Bacterial numbers (CFU/ml) ([2]; 1% fatty acid alone): 3.5 × × 10^6 CFU/ml

Betaglucan [C4]
Bacterial numbers (CFU/ml) ([1]; 1% prebiotic alone): 1.1 × × 10^6 CFU/ml | Bacterial numbers (CFU/ml) ([2]; 1% prebiotic alone): 1.2 × × 10^7 CFU/ml

OC[C@H]1O[C@@H](O[C@H]2[C@H](O)[C@@H](O)[C@@H](O[C@]3(CO)O[C@H](CO)[C@@H](O)[C@@H]3O)O[C@@H]2CO)[C@H](O)[C@@H](O)[C@H]1O [C2, Lactosucrose]
Bacterial numbers (CFU/ml) ([1]; 1% prebiotic alone): 1.1 × × 10^6 CFU/ml | Bacterial numbers (CFU/ml) ([2]; 1% prebiotic alone): 1.1 × × 10^7 CFU/ml

Reference: US8329672B2, “Oral and/or topical compositions comprising prebiotics and fatty acid” (Cognis IP Management GmbH, priority 2004, dated 2012)
